# Results as given in patent publication US6355799B1, “Substituted benzene compounds, process for their preparation, and herbicidal and defoliant compositions containing them” (ISK Americas Incorporated, priority 1997, dated 2002).
# What was measured:
# Type in all cases: in vivo
# [1] = tested on: sicklepod (Cassia obtusifolia, CASOB); test: Post-emerge test, greenhouse herbicide activity screening; details: post-emerge, 14 days after application, rating scale 0-100
# Summary of the method: (§1)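 Rating: 0–100 visual injury, 14 DAA. Application: acetone, 187 l/ha, 15–1000 g ai/ha, flat-fan track sprayer with nozzle 40–45 cm above soil or canopy. Post-emerge runs used 0.25% v/v surfactant on 2–3 leaf plants.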
# [2] = tested on: green foxtail (Setaria viridis, SETVI); test: as above; details: post-emerge, 14 days after application, rating scale 0-100
# Summary of the method: as §1
# [3] = tested on: johnsongrass (Sorghum halepense, SORHA); test: as above; details: post-emerge, 14 days after application, rating scale 0-100
# Summary of the method: as §1
# [4] = tested on: velvetleaf (Abutilon theophrasti, ABUTH); test: as above; details: post-emerge, 14 days after application, rating scale 0-100
# Summary of the method: as §1
# [5] = tested on: lambsquarters (Chenopodium album, CHEAL); test: as above; details: post-emerge, 14 days after application, rating scale 0-100
# Summary of the method: as §1
# [6] = tested on: ivyleaf morningglory (Ipomoea hederacea, IPOHE); test: as above; details: post-emerge, 14 days after application, rating scale 0-100
# Summary of the method: as §1
# [7] = tested on: barnyardgrass (Echinochloa crus-galli, ECHCG); test: as above; details: post-emerge, 14 days after application, rating scale 0-100
# Summary of the method: as §1
# [8] = tested on: redroot pigweed (Amaranthus retroflexus, AMARE); test: as above; details: post-emerge, 14 days after application
# Summary of the method: as §1
# [9] = tested on: large crabgrass (Digitaria sanguinalis, DIGSA); test: as above; details: post-emerge, 14 days after application, rating scale 0-100
# Summary of the method: as §1
# [10] = tested on: field corn (Zea mays L., var. Dekalb 535, CORN); test: Post-emerge test, crop safety; details: post-emerge, 14 days after application, rating scale 0-100
# Summary of the method: (§2)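 Herbicidal damage is scored 0 (none) to 100 (complete plant death) two weeks after a simulated field spray. Rates span 15–1000 g ai/ha, delivered in acetone at 187 l/ha. For post-emergence treatments, plants have 2–3 leaves and the spray carries 0.25% v/v non-ionic surfactant.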
# [11] = tested on: upland rice (Oryza sp., var. Tebonnet, RICE); test: Post-emerge test, crop safety; details: post-emerge, 14 days after application, rating scale 0-100
# Summary of the method: as §2
# [12] = tested on: redroot pigweed (Amaranthus retroflexus, AMARE); test: Pre-emerge test, greenhouse herbicide activity screening; details: for phytotoxicity rating AMARE: pre-emerge, 14 days after application, rating scale 0-100; for Pre-emerge Herbicidal Activity AMARE: phytotoxicity rating 0-100, 14 days after application
# Summary of the method: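 Sandy loam pots; pre-emerge: sown 1 d pre-spray, surface-watered after, then bottom-watered. Post-emerge: sown 8–21 d before, 2–3 leaf stage, + 0.25% v/v NIS, bottom-watered. Acetone, 187 l/ha track spray, 15–1000 g ai/ha. 0–100 injury score, day 14.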
# [13] = tested on: field corn (Zea mays L., var. Dekalb 535, CORN); test: Pre-emerge test, crop safety; details: for phytotoxicity rating CORN: pre-emerge, 14 days after application, rating scale 0-100; for Pre-emerge Herbicidal Activity CORN: crop damage rating 0-100, 14 days after application
# Summary of the method: (§3)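 Compounds in acetone were track-sprayed at 187 l/ha, 15–1000 g ai/ha, onto sandy loam pots. Pre-emerge seeds were sown one day before spraying, with surface watering afterwards. Post-emerge plants were at the 2–3 leaf stage and sprayed with 0.25% v/v non-ionic surfactant. Injury was rated 0–100 at 14 days.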
# [14] = tested on: upland rice (Oryza sp., var. Tebonnet, RICE); test: Pre-emerge test, crop safety; details: for phytotoxicity rating RICE: pre-emerge, 14 days after application, rating scale 0-100; for Pre-emerge Herbicidal Activity RICE: crop damage rating 0-100, 14 days after application
# Summary of the method: as §3
# [15] = tested on: sicklepod (Cassia obtusifolia, CASOB); test: Pre-emerge test, greenhouse herbicide activity screening; details: for phytotoxicity rating CASOB: pre-emerge, 14 days after application, rating scale 0-100; for Pre-emerge Herbicidal Activity CASOB: phytotoxicity rating 0-100, 14 days after application
# Summary of the method: as §2
# [16] = tested on: green foxtail (Setaria viridis, SETVI); test: as above; details: for phytotoxicity rating SETVI: pre-emerge, 14 days after application, rating scale 0-100; for Pre-emerge Herbicidal Activity SETVI: phytotoxicity rating 0-100, 14 days after application
# Summary of the method: as §2
# [17] = tested on: johnsongrass (Sorghum halepense, SORHA); test: as above; details: for phytotoxicity rating SORHA: pre-emerge, 14 days after application, rating scale 0-100; for Pre-emerge Herbicidal Activity SORHA: phytotoxicity rating 0-100, 14 days after application
# Summary of the method: as §2
# [18] = tested on: velvetleaf (Abutilon theophrasti, ABUTH); test: as above; details: for phytotoxicity rating ABUTH: pre-emerge, 14 days after application, rating scale 0-100; for Pre-emerge Herbicidal Activity ABUTH: phytotoxicity rating 0-100, 14 days after application
# Summary of the method: as §2
# [19] = tested on: lambsquarters (Chenopodium album, CHEAL); test: as above; details: for phytotoxicity rating CHEAL: pre-emerge, 14 days after application, rating scale 0-100; for Pre-emerge Herbicidal Activity CHEAL: phytotoxicity rating 0-100, 14 days after application
# Summary of the method: as §2
# [20] = tested on: ivyleaf morningglory (Ipomoea hederacea, IPOHE); test: as above; details: for phytotoxicity rating IPOHE: pre-emerge, 14 days after application, rating scale 0-100; for Pre-emerge Herbicidal Activity IPOHE: phytotoxicity rating 0-100, 14 days after application
# Summary of the method: as §2
# [21] = tested on: common ragweed (Ambrosia artemisizfolia L., AMBEL); test: as above; details: for phytotoxicity rating AMBEL: pre-emerge, 14 days after application, rating scale 0-100; for Pre-emerge Herbicidal Activity AMBEL: phytotoxicity rating 0-100, 14 days after application
# Summary of the method: as §2
# [22] = tested on: barnyardgrass (Echinochloa crus-galli, ECHCG); test: as above; details: for phytotoxicity rating ECHCG: pre-emerge, 14 days after application, rating scale 0-100; for Pre-emerge Herbicidal Activity ECHCG: phytotoxicity rating 0-100, 14 days after application
# Summary of the method: as §2
# [23] = tested on: large crabgrass (Digitaria sanguinalis, DIGSA); test: as above; details: for phytotoxicity rating DIGSA: pre-emerge, 14 days after application, rating scale 0-100; for Pre-emerge Herbicidal Activity DIGSA: phytotoxicity rating 0-100, 14 days after application
# Summary of the method: as §2
# [24] = 63 g ai/ha, rating scale 0-100 (0 no damage, 100 complete death)
# [25] = 250 g ai/ha, rating scale 0-100
smiles,measurement,setting,value
CCCOC(=O)C(Cl)Cc1c(OCC)c(Cl)cc(F)c1-n1c(=O)cc(C(F)(F)F)n(C)c1=O (centres unmarked) [14-66],Post-emerge Herbicidal Activity CASOB (phytotoxicity rating),[1]; 63 g ai/ha,80
same,Post-emerge Herbicidal Activity CASOB (phytotoxicity rating),[1]; 250 g ai/ha,90
same,Post-emerge Herbicidal Activity SETVI (phytotoxicity rating),[2]; 63 g ai/ha,95
same,Post-emerge Herbicidal Activity SETVI (phytotoxicity rating),[2]; 250 g ai/ha,100
same,Post-emerge Herbicidal Activity SORHA (phytotoxicity rating),[3]; 63 g ai/ha,60
same,Post-emerge Herbicidal Activity SORHA (phytotoxicity rating),[3]; 250 g ai/ha,80
same,Post-emerge Herbicidal Activity ABUTH (phytotoxicity rating),[4]; 63 g ai/ha,100
same,Post-emerge Herbicidal Activity ABUTH (phytotoxicity rating),[4]; 250 g ai/ha,100
same,Post-emerge Herbicidal Activity CHEAL (phytotoxicity rating),[5]; 63 g ai/ha,80
same,Post-emerge Herbicidal Activity CHEAL (phytotoxicity rating),[5]; 250 g ai/ha,99
same,Post-emerge Herbicidal Activity IPOHE (phytotoxicity rating),[6]; 63 g ai/ha,70
same,Post-emerge Herbicidal Activity IPOHE (phytotoxicity rating),[6]; 250 g ai/ha,90
same,Post-emerge Herbicidal Activity ECHCG (phytotoxicity rating),[7]; 63 g ai/ha,100
same,Post-emerge Herbicidal Activity ECHCG (phytotoxicity rating),[7]; 250 g ai/ha,100
same,Post-emerge Herbicidal Activity AMARE (phytotoxicity rating),[8]; [24],95
same,Post-emerge Herbicidal Activity AMARE (phytotoxicity rating),[8]; [25],100
same,Post-emerge Herbicidal Activity DIGSA (phytotoxicity rating),[9]; 63 g ai/ha,100
same,Post-emerge Herbicidal Activity DIGSA (phytotoxicity rating),[9]; 250 g ai/ha,100
same,Post-emerge Herbicidal Activity CORN (crop damage rating),[10]; 63 g ai/ha,90
same,Post-emerge Herbicidal Activity CORN (crop damage rating),[10]; 250 g ai/ha,100
same,Post-emerge Herbicidal Activity RICE (crop damage rating),[11]; 63 g ai/ha,0
same,Post-emerge Herbicidal Activity RICE (crop damage rating),[11]; 250 g ai/ha,10
same,phytotoxicity rating AMARE,[12]; 63 g ai/ha,100
same,phytotoxicity rating AMARE,[12]; 250 g ai/ha,100
same,phytotoxicity rating CORN,[13]; 63 g ai/ha,0
same,phytotoxicity rating CORN,[13]; 250 g ai/ha,0
same,phytotoxicity rating RICE,[14]; 63 g ai/ha,0
same,phytotoxicity rating RICE,[14]; 250 g ai/ha,20
same,phytotoxicity rating CASOB,[15]; 63 g ai/ha,0
same,phytotoxicity rating CASOB,[15]; 250 g ai/ha,0
same,phytotoxicity rating SETVI,[16]; 63 g ai/ha,20
same,phytotoxicity rating SETVI,[16]; 250 g ai/ha,100
same,phytotoxicity rating SORHA,[17]; 63 g ai/ha,0
same,phytotoxicity rating SORHA,[17]; 250 g ai/ha,30
same,phytotoxicity rating ABUTH,[18]; 63 g ai/ha,90
same,phytotoxicity rating ABUTH,[18]; 250 g ai/ha,100
same,phytotoxicity rating CHEAL,[19]; 63 g ai/ha,90
same,phytotoxicity rating CHEAL,[19]; 250 g ai/ha,100
same,phytotoxicity rating IPOHE,[20]; 63 g ai/ha,0
same,phytotoxicity rating IPOHE,[20]; 250 g ai/ha,60
same,phytotoxicity rating AMBEL,[21]; 63 g ai/ha,0
same,phytotoxicity rating AMBEL,[21]; 250 g ai/ha,0
same,phytotoxicity rating ECHCG,[22]; 63 g ai/ha,50
same,phytotoxicity rating ECHCG,[22]; 250 g ai/ha,100
same,phytotoxicity rating DIGSA,[23]; 63 g ai/ha,90
same,phytotoxicity rating DIGSA,[23]; 250 g ai/ha,100
Cc1ccc(-n2c(=O)cc(C(F)(F)F)n(C)c2=O)c(NC(=O)c2ccc3ccccc3c2)c1 [2-201],phytotoxicity rating CASOB,[1]; 63 g ai/ha,60
same,phytotoxicity rating CASOB,[1]; 250 g ai/ha,85
same,phytotoxicity rating SETVI,[2]; 63 g ai/ha,20
same,phytotoxicity rating SETVI,[2]; 250 g ai/ha,30
same,phytotoxicity rating SORHA,[3]; 63 g ai/ha,0
same,phytotoxicity rating SORHA,[3]; 250 g ai/ha,0
same,phytotoxicity rating ABUTH,[4]; 63 g ai/ha,95
same,phytotoxicity rating ABUTH,[4]; 250 g ai/ha,99
same,phytotoxicity rating CHEAL,[5]; 63 g ai/ha,95
same,phytotoxicity rating CHEAL,[5]; 250 g ai/ha,98
same,phytotoxicity rating IPOHE,[6]; 63 g ai/ha,95
same,phytotoxicity rating IPOHE,[6]; 250 g ai/ha,95
same,phytotoxicity rating ECHCG,[7]; 63 g ai/ha,50
same,phytotoxicity rating ECHCG,[7]; 250 g ai/ha,60
same,phytotoxicity rating AMARE,[8]; [24],99
same,phytotoxicity rating AMARE,[8]; [25],100
same,phytotoxicity rating DIGSA,[9]; 63 g ai/ha,35
same,phytotoxicity rating DIGSA,[9]; 250 g ai/ha,45
same,phytotoxicity rating CORN (crop damage),[10]; 63 g ai/ha,30
same,phytotoxicity rating CORN (crop damage),[10]; 250 g ai/ha,35
same,phytotoxicity rating RICE (crop damage),[11]; 63 g ai/ha,60
same,phytotoxicity rating RICE (crop damage),[11]; 250 g ai/ha,65
same,Pre-emerge Herbicidal Activity AMARE,[12]; 63 g ai/ha,95
same,Pre-emerge Herbicidal Activity AMARE,[12]; 250 g ai/ha,95
same,Pre-emerge Herbicidal Activity CORN,[13]; 63 g ai/ha,0
same,Pre-emerge Herbicidal Activity CORN,[13]; 250 g ai/ha,0
same,Pre-emerge Herbicidal Activity RICE,[14]; 63 g ai/ha,0
same,Pre-emerge Herbicidal Activity RICE,[14]; 250 g ai/ha,30
same,Pre-emerge Herbicidal Activity CASOB,[15]; 63 g ai/ha,0
same,Pre-emerge Herbicidal Activity CASOB,[15]; 250 g ai/ha,0
same,Pre-emerge Herbicidal Activity SETVI,[16]; 63 g ai/ha,0
same,Pre-emerge Herbicidal Activity SETVI,[16]; 250 g ai/ha,75
same,Pre-emerge Herbicidal Activity SORHA,[17]; 63 g ai/ha,0
same,Pre-emerge Herbicidal Activity SORHA,[17]; 250 g ai/ha,30
same,Pre-emerge Herbicidal Activity ABUTH,[18]; 63 g ai/ha,98
same,Pre-emerge Herbicidal Activity ABUTH,[18]; 250 g ai/ha,100
same,Pre-emerge Herbicidal Activity CHEAL,[19]; 63 g ai/ha,98
same,Pre-emerge Herbicidal Activity CHEAL,[19]; 250 g ai/ha,100
same,Pre-emerge Herbicidal Activity IPOHE,[20]; 63 g ai/ha,55
same,Pre-emerge Herbicidal Activity IPOHE,[20]; 250 g ai/ha,80
same,Pre-emerge Herbicidal Activity AMBEL,[21]; 63 g ai/ha,30
same,Pre-emerge Herbicidal Activity AMBEL,[21]; 250 g ai/ha,80
same,Pre-emerge Herbicidal Activity ECHCG,[22]; 63 g ai/ha,15
same,Pre-emerge Herbicidal Activity ECHCG,[22]; 250 g ai/ha,75
same,Pre-emerge Herbicidal Activity DIGSA,[23]; 63 g ai/ha,45
same,Pre-emerge Herbicidal Activity DIGSA,[23]; 250 g ai/ha,95
